Experimental data from patent US6645918B1, “N-([1,2,4]triazoloazinyl)thiophenesulfonamide compounds and their use as herbicides” (Dow AgroSciences LLC, priority 2000, dated 2003).

Experiments:
Assay type in all cases: in vivo
[1] = test system: chickweed (Stellaria media); test: Postemergence herbicidal activity, chickweed; settings: foliar spray, visual after 2 weeks, 0 no injury, 100 complete kill
In short: (§1)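 Injury rated visually at 2 weeks, 0 (none) to 100% (complete kill), relative to carrier-sprayed controls. Foliar spray applied to 7–21-day-old seedlings at first or second true leaf, with rates in ppm (1 ppm ≈ 1 g/ha) in an aqueous acetone/DMSO/crop oil/surfactant mix.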

[2] = test system: cocklebur (Xanthium strumarium); test: Postemergence herbicidal activity, cocklebur; settings: foliar spray, visual after 2 weeks, 0 no injury, 100 complete kill
In short: as §1

[3] = test system: lambsquarters (Chenopodium album); test: Postemergence herbicidal activity, lambsquarters; settings: foliar spray, visual after 2 weeks, 0 no injury, 100 complete kill
In short: as §1

[4] = test system: morningglory (Ipomoea hederacea); test: Postemergence herbicidal activity, morningglory; settings: foliar spray, visual after 2 weeks, 0 no injury, 100 complete kill
In short: as §1

[5] = test system: pigweed (Amaranthus retroflexus); test: Postemergence herbicidal activity, pigweed; settings: foliar spray, visual after 2 weeks, 0 no injury, 100 complete kill
In short: as §1

[6] = test system: velvetleaf (Abutilion theophrasti); test: Postemergence herbicidal activity, velvetleaf; settings: foliar spray, visual after 2 weeks, 0 no injury, 100 complete kill
In short: as §1

viola (Viola tricolor) = test: Postemergence herbicidal activity, viola; settings: foliar spray, visual after 2 weeks, 0 no injury, 100 complete kill
In short: as §1

[7] = test system: wild buckwheat (Polygonum convolvulus); test: Postemergence herbicidal activity, wild buckwheat; settings: foliar spray, visual after 2 weeks, 0 no injury, 100 complete kill
Method: Seeds of the desired test plant species were planted in Grace-Sierra MetroMix® 306 planting mixture, which typically has a pH of 6.0 to 6.8 and an organic matter content of about 30 percent, in plastic pots with a surface area of 64 square centimeters. When required to ensure good germination and healthy plants, a fungicide treatment and/or other chemical or physical treatment was applied. The plants were grown for 7-21 days in a greenhouse with an approximately 15 hr photoperiod which was maintained at about 23-29° C. during the day and 22-28° C. during the night. Nutrients and water were added on a regular basis and supplemental lighting was provided with overhead metal halide 1000 Watt lamps as necessary. The plants were employed for testing when they reached the first or second true leaf stage. A weighed amount of each test compound, determined by the highest rate to be tested, was placed in a 20 mL glass vial and was dissolved in 4 mL of a 97:3 v/v (volume/volume) mixture of acetone and dimethyl sulfoxide to obtain concentrated stock solutions. […] The concentrated stock solutions obtained were diluted with an aqueous mixture containing acetone, water, iso-propyl alcohol, dimethyl sulfoxide, Atplus 411F crop oil concentrate, and Triton X-155 surfactant (methylenebisdiamyl phenoxy polyethoxy ethanol) in a 48.5:39:10:1.5:1.0:0.02 v/v ratio to obtain spray solutions of known concentration. The solutions containing the highest concentration to be tested were prepared by diluting 2 mL aliquots of the stock solution with 13 mL of the mixture and lower concentrations were prepared by dilution of appropriate smaller portions of the stock solution. Approximately 1.5 mL aliquots of each solution of known concentration were sprayed evenly onto each of the test plant pots using a DeVilbiss atomizer driven by compressed air pressure of 2 to 4 psi (140 to 280 kilopascals) to obtain thorough coverage of each plant. Control plants were sprayed in the same manner with the aqueous mixture. In this test an application rate of 1 ppm results in the application of approximately 1 g/ha. The treated plants and control plants were placed in a greenhouse as described above and watered by sub-irrigation to prevent wash-off of the test compounds. After 2 weeks the condition of the test plants as compared with that of the untreated plants was determined visually and scored on a scale of 0 to 100 percent where 0 corresponds to no injury and 100 corresponds to complete kill.

[8] = test system: blackgrass (Alopecurus myosuroides); test: Postemergence herbicidal activity, blackgrass; settings: foliar spray, visual after 2 weeks, 0 no injury, 100 complete kill
In short: as §1

[9] = test system: giant foxtail (Setaria faberi); test: Postemergence herbicidal activity, giant foxtail; settings: foliar spray, visual after 2 weeks, 0 no injury, 100 complete kill
In short: as §1

[10] = test system: Rox orange sorghum (Sorghum bicolor); test: Postemergence herbicidal activity, Rox orange sorghum; settings: foliar spray, visual after 2 weeks, 0 no injury, 100 complete kill
In short: as §1

wild oats (Avena fatua) [11] = test: Postemergence herbicidal activity, wild oats; settings: foliar spray, visual after 2 weeks, 0 no injury, 100 complete kill
In short: as §1

[12] = test system: cocklebur (Xanthium strumarium); test: Preemergence herbicidal activity, cocklebur; settings: 8.8 g/Ha, soil spray, visual after 3 weeks; 0 no injury, 100 complete kill or no germination
In short: (§2)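 Ratings are percent injury assessed visually three weeks after treatment, comparing emerged treated plants with untreated ones; 0 indicates no effect and 100 indicates plants killed or not germinated. Compound was sprayed on the soil of seeded pots at up to 4.48 kg/ha.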

[13] = test system: lambsquarters (Chenopodium album); test: Preemergence herbicidal activity, lambsquarters; settings: 8.8 g/Ha, soil spray, visual after 3 weeks; 0 no injury, 100 complete kill or no germination
In short: as §2

[14] = test system: morningglory (Ipomoea hederacea); test: Preemergence herbicidal activity, morningglory; settings: 8.8 g/Ha, soil spray, visual after 3 weeks; 0 no injury, 100 complete kill or no germination
In short: as §2

[15] = test system: pigweed (Amaranthus retroflexus); test: Preemergence herbicidal activity, pigweed; settings: 8.8 g/Ha, soil spray, visual after 3 weeks; 0 no injury, 100 complete kill or no germination
In short: as §2

[16] = test system: velvetleaf (Abutilion theophrasti); test: Preemergence herbicidal activity, velvetleaf; settings: 8.8 g/Ha, soil spray, visual after 3 weeks; 0 no injury, 100 complete kill or no germination
In short: as §2

[17] = test system: wild poinsettia (Euphorbia heterophylla); test: Preemergence herbicidal activity, wild poinsettia; settings: 8.8 g/Ha, soil spray, visual after 3 weeks; 0 no injury, 100 complete kill or no germination
In short: as §2

[18] = test system: blackgrass (Alopecurus myosuroides); test: Preemergence herbicidal activity, blackgrass; settings: 8.8 g/Ha, soil spray, visual after 3 weeks; 0 no injury, 100 complete kill or no germination
In short: as §2

[19] = test system: barnyardgrass (Echinochloa crus-galli); test: Preemergence herbicidal activity, barnyardgrass; settings: 8.8 g/Ha, soil spray, visual after 3 weeks; 0 no injury, 100 complete kill or no germination
In short: as §2

[20] = test system: crabgrass (Digitaria sanguinalis); test: Preemergence herbicidal activity, crabgrass; settings: 8.8 g/Ha, soil spray, visual after 3 weeks; 0 no injury, 100 complete kill or no germination
In short: as §2

[21] = test system: giant foxtail (Setaria faberi); test: Preemergence herbicidal activity, giant foxtail; settings: 8.8 g/Ha, soil spray, visual after 3 weeks; 0 no injury, 100 complete kill or no germination
In short: as §2

[22] = test system: Rox orange sorghum (Sorghum bicolor); test: Preemergence herbicidal activity, Rox orange sorghum; settings: 8.8 g/Ha, soil spray, visual after 3 weeks; 0 no injury, 100 complete kill or no germination
In short: as §2

wild oats (Avena fatua) [23] = test: Preemergence herbicidal activity, wild oats; settings: 8.8 g/Ha, soil spray, visual after 3 weeks; 0 no injury, 100 complete kill or no germination
In short: as §2

SMILES | XANST preemergence injury score 0-100 [12] [%] | CHEAL preemergence injury score 0-100 [13] [%] | IPOHE preemergence injury score 0-100 [14] [%] | AMARE preemergence injury score 0-100 [15] [%] | ABUTH preemergence injury score 0-100 [16] [%] | EPHHL preemergence injury score 0-100 [17] [%] | ALOMY preemergence injury score 0-100 [18] [%] | ECHCG preemergence injury score 0-100 [19] [%] | DIGSA preemergence injury score 0-100 [20] [%] | SETFA preemergence injury score 0-100 [21] [%] | SORBI preemergence injury score 0-100 [22] [%] | AVEFA preemergence injury score 0-100 (wild oats (Avena fatua) [23]) [%] | also measured
COc1cc(OC)n2nc(NS(=O)(=O)c3c(OC)csc3C)nc2n1 [Compound 24] | 70 | 100 | 98 | 90 | 98 | 80 | 90 | 40 | 98 | 100 | 100 | 70 | STEME postemergence injury score 0-100 ([1]; 7.8 ppm): 80%; XANST postemergence injury score 0-100 ([2]; 7.8 ppm): 90%; CHEAL postemergence injury score 0-100 ([3]; 7.8 ppm): 85%; IPOHE postemergence injury score 0-100 ([4]; 7.8 ppm): 80%; AMARE postemergence injury score 0-100 ([5]; 7.8 ppm): 100%; ABUTH postemergence injury score 0-100 ([6]; 7.8 ppm): 70%; VIOTR postemergence injury score 0-100 (viola (Viola tricolor); 7.8 ppm): 70%; POLCO postemergence injury score 0-100 ([7]; 7.8 ppm): 70%; ALOMY postemergence injury score 0-100 ([8]; 7.8 ppm): 80%; SETFA postemergence injury score 0-100 ([9]; 7.8 ppm): 90%; SORBI postemergence injury score 0-100 ([10]; 7.8 ppm): 100%; AVEFA postemergence injury score 0-100 (wild oats (Avena fatua) [11]; 7.8 ppm): 70%
CCOc1cscc1S(=O)(=O)Nc1nc2nc(OC)cc(OC)n2n1 [Compound 12] | 90 | 100 | 80 | 100 | 90 | 95 | 100 | 100 | 100 | 100 | 100 | 100 | STEME postemergence injury score 0-100 ([1]; 15.6 ppm): 95%; XANST postemergence injury score 0-100 ([2]; 15.6 ppm): 90%; CHEAL postemergence injury score 0-100 ([3]; 15.6 ppm): 90%; IPOHE postemergence injury score 0-100 ([4]; 15.6 ppm): 95%; AMARE postemergence injury score 0-100 ([5]; 15.6 ppm): 95%; ABUTH postemergence injury score 0-100 ([6]; 15.6 ppm): 95%; VIOTR postemergence injury score 0-100 (viola (Viola tricolor); 15.6 ppm): 80%; POLCO postemergence injury score 0-100 ([7]; 15.6 ppm): 85%; ALOMY postemergence injury score 0-100 ([8]; 15.6 ppm): 60%; SETFA postemergence injury score 0-100 ([9]; 15.6 ppm): 95%; SORBI postemergence injury score 0-100 ([10]; 15.6 ppm): 95%; AVEFA postemergence injury score 0-100 (wild oats (Avena fatua) [11]; 15.6 ppm): 85%
